Test results published in patent US20240158391A1, “DERIVATIVES OF 4-(IMIDAZO[1,2-A]PYRIDIN-3-YL)-N-(PYRIDIN-3-YL) PYRIMIDIN-2- AMINE FOR TREATING PROLIFERATIVE DISEASES AND CONDITIONS” (AUCENTRA THERAPEUTICS PTY LTD, priority 2019, published 2024).

What was measured:
CDK2/CyclinA2 = CDK2/CyclinA2 (Homo sapiens, UniProt P24941); test: ADP Glo kinase assay, CDK2/CyclinA2; assay type: biochemical; settings: for remaining activity at 1 µM: compound at 1 μM, read-out: Residual enzymatic activity (%) at 1 μM, CDK2 A; for Ki: Km ATP, read-out: Enzymatic inhibition, Ki, CDK2 A
Description: (§1) Test compounds are used in 1:3 serial dilutions for 10 concentrations (from 10-0.0005 μM) in 0.5% DMSO. […] The kinase reactions are run for optimised time period at room temperature and then the reaction is stopped by adding 5 μL of ADP Glo reagent.

CDK7/CyclinH/Mat1 = CDK7/CyclinH/Mat1 (Homo sapiens, UniProt P50613); test: ADP Glo kinase assay, CDK7/CyclinH/Mat1; assay type: biochemical; settings: compound at 1 μM, read-out: Residual enzymatic activity (%) at 1 μM, CDK7 H
Description: as §1

CDK6/CyclinD3 = CDK6/CyclinD3 (Homo sapiens, UniProt Q00534); test: ADP Glo kinase assay, CDK6/CyclinD3; assay type: biochemical; settings: compound at 1 μM, read-out: Residual enzymatic activity (%) at 1 μM, CDK6 D3
Description: as §1

FLT3-ITD = target: T1, FLT3-ITD (Homo sapiens, UniProt P36888); test: ADP Glo kinase assay, FLT3-ITD; assay type: biochemical; settings: for Ki: Km ATP 100 μM, read-out: Enzymatic inhibition, Ki, FLT3-ITD
T1 sequence (P36888 1-993): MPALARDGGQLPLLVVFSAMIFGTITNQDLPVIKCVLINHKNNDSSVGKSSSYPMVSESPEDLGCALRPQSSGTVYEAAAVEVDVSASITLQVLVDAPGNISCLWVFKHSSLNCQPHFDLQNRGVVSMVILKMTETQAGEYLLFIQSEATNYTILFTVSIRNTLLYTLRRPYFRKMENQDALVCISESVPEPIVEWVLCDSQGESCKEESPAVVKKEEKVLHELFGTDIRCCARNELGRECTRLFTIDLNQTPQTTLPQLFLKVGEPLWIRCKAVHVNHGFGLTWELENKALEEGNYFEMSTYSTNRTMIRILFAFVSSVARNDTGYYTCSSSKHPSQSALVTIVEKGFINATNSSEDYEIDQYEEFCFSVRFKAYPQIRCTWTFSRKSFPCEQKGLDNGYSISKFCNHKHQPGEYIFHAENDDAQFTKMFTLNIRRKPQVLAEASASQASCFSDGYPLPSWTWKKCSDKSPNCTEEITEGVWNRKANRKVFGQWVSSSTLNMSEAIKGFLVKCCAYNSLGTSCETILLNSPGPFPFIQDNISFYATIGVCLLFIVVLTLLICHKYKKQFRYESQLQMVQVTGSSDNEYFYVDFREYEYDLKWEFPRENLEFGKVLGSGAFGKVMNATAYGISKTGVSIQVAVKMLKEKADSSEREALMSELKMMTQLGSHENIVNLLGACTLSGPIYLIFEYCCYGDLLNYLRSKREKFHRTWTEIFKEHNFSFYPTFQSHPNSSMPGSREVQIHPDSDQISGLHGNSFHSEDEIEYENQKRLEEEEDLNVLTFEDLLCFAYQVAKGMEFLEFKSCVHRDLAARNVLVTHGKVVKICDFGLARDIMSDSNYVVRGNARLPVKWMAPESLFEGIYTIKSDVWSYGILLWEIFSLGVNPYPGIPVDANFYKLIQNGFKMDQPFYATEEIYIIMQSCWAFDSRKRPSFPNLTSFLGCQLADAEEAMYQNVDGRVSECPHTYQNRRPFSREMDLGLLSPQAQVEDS
Description: as §1

MV-4-11 = test: Proliferation assay (resazurin, leukemia cell lines), MV-4-11; assay type: cell-based; settings: Homo sapiens, MV4-11, read-out: 72 h Growth inhibition GI50, MV-4-11 cells
From the text: The following compounds were used as comparators.

CDK9/CyclinT1 = CDK9/CyclinT1 (Homo sapiens, UniProt P50750); test: ADP Glo kinase assay, CDK9/CyclinT1; assay type: biochemical; settings: CDK9/CyclinT1; Km ATP; read-out: Enzymatic inhibition, Ki, CDK9 T1
Description: as §1

CDK1/CyclinB = CDK1/CyclinB (Homo sapiens, UniProt P06493); test: ADP Glo kinase assay, CDK1/CyclinB; assay type: biochemical; settings: for remaining activity at 1 µM: compound at 1 μM, read-out: Residual enzymatic activity (%) at 1 μM, CDK1 B
Description: as §1

Chain of CDK1/CyclinB (P06493 whole entry, species assumed): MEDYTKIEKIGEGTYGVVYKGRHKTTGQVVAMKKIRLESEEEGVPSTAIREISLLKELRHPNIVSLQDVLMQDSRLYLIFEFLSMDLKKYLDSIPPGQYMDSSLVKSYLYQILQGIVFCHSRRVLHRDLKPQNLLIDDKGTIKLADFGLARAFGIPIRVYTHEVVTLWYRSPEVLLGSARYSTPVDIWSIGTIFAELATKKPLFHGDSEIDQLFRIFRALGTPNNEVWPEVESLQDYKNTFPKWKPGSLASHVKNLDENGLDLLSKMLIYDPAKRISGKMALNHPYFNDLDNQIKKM
Chain of CDK1/CyclinB (P14635 whole entry partner, species assumed): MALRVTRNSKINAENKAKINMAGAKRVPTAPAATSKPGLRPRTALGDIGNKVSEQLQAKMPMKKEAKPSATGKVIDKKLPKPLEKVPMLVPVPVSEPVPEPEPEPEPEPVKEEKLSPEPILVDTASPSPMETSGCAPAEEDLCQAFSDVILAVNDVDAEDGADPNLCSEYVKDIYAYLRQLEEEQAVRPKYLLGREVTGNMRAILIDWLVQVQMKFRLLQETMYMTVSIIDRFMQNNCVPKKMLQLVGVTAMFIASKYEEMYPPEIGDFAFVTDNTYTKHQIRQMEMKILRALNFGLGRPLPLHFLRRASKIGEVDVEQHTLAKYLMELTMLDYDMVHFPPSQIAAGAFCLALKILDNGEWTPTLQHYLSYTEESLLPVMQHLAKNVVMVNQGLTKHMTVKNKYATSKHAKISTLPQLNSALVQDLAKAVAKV
Chain of CDK7/CyclinH/Mat1 (P50613 whole entry, species assumed): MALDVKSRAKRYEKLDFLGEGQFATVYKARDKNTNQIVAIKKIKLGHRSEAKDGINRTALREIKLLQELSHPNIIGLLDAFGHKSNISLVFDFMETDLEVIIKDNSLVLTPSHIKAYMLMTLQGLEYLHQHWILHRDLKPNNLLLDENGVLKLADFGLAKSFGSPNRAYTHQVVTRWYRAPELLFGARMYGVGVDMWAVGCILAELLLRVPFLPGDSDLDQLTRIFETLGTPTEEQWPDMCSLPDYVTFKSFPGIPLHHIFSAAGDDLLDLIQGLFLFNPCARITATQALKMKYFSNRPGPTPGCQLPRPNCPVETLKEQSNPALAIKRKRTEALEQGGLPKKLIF
Chain of CDK7/CyclinH/Mat1 (P51946 whole entry partner, species assumed): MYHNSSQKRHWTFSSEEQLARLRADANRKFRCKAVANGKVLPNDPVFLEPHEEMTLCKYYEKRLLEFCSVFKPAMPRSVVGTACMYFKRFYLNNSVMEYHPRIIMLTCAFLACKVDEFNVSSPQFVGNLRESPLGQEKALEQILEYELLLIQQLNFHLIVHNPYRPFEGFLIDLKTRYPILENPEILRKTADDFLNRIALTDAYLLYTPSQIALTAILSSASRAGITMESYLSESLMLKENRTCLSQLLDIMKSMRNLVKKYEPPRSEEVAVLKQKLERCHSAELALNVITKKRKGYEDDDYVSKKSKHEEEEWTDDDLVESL
Chain of CDK7/CyclinH/Mat1 (P51948 whole entry partner, species assumed): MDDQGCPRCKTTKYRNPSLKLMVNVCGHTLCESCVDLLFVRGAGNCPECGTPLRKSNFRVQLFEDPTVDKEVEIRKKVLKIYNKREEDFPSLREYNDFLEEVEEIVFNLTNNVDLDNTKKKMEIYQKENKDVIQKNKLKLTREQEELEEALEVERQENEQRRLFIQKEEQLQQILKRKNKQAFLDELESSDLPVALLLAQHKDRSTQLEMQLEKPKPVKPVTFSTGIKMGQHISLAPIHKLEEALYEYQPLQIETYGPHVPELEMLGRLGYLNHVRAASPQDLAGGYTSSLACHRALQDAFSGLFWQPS
Chain of CDK9/CyclinT1 (P50750 whole entry, species assumed): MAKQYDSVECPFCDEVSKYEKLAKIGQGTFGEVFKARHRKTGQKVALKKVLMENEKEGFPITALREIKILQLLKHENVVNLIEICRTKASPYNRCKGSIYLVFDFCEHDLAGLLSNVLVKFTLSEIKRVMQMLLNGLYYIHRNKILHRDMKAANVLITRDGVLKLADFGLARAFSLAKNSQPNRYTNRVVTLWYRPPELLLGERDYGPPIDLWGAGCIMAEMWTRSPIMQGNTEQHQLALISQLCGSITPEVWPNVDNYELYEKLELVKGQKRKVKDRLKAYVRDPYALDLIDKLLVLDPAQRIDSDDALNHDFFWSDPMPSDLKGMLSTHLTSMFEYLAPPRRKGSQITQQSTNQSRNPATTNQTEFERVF
Chain of CDK9/CyclinT1 (O60563 whole entry partner, species assumed): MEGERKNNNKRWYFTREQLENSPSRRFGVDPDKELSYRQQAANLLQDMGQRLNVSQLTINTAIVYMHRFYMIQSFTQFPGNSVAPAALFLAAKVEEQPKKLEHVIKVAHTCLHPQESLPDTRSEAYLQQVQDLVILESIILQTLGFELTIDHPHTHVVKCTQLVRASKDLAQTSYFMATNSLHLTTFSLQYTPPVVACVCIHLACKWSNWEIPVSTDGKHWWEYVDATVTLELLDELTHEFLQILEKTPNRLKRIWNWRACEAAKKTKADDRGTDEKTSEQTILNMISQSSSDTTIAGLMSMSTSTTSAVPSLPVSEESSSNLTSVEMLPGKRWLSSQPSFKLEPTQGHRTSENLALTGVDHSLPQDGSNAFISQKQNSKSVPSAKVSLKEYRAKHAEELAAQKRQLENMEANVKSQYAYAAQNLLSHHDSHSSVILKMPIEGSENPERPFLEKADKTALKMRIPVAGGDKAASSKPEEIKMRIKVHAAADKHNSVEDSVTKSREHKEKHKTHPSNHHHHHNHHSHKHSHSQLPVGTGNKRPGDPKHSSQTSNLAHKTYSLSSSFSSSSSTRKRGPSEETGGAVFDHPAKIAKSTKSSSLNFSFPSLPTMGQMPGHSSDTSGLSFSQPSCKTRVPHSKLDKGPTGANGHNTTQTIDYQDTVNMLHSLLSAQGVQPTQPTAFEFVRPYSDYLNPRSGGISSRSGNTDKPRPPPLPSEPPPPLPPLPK
Chain of CDK6/CyclinD3 (Q00534 whole entry, species assumed): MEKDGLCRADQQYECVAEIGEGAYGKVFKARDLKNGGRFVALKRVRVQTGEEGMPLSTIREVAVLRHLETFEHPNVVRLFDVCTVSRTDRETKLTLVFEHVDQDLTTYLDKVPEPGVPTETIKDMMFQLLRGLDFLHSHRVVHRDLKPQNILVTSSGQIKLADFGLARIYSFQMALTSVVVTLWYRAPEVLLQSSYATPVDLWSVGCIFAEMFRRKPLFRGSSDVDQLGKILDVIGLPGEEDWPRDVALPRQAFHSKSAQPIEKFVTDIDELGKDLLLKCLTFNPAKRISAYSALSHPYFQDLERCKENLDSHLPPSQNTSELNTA
Chain of CDK6/CyclinD3 (P30281 whole entry partner, species assumed): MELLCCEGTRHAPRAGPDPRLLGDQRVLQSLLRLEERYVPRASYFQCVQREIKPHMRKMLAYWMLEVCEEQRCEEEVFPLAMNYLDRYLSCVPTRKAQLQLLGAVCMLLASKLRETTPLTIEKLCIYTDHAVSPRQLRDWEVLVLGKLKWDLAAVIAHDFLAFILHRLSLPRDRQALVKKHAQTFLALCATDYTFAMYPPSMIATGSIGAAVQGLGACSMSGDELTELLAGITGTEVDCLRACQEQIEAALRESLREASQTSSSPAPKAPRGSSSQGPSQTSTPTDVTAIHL

remaining activity at 1 µM (CDK2/CyclinA2) | remaining activity at 1 µM (CDK7/CyclinH/Mat1) | remaining activity at 1 µM (CDK6/CyclinD3) | Ki (FLT3-ITD) | GI50 (MV-4-11) | Ki (CDK9/CyclinT1) | remaining activity at 1 µM (CDK1/CyclinB) | SMILES | Ki (CDK2/CyclinA2) | Residual enzymatic activity (%) at 1 μM, FLT3-ITD (FLT3-ITD; compound at 1 μM) | Ki (CDK1/CyclinB; Km ATP, read-out: Enzymatic inhibition, Ki, CDK1 B)
91% | 100% | 100% | 142 nM | 20 nM | 509 nM | 61% | CCS(=O)(=O)N1CCN(c2ccc(Nc3nccc(-c4cnc5ccc(-c6ccccc6)cn45)n3)cn2)CC1 [Compound 60, N-(6-(4-(Ethylsulfonyl)piperazin-1-yl)pyridin-3-yl)-4-(6-phenylimidazo[1,2-a]pyridin-3-yl)pyrimidin-2-amine] |  |  | 
64% | 59% | 73% | 55 nM | 5 nM | > 500 nM | 75% | O=C1NCCC12CCN(c1ccc(Nc3nccc(-c4cnc5ccc(-c6ccccc6)cn45)n3)cn1)CC2 [Compound 72, 8-(5-((4-(6-Phenylimidazo[1,2-a]pyridin-3-yl)pyrimidin-2-yl)amino)pyridin-2-yl)-2,8-diazaspiro[4.5]decan-1-one] |  |  | 
49% | 93% | 100% | 82 nM | 25 nM | 242 nM | 26% | O=C(c1ccco1)N1CCN(c2ccc(Nc3nccc(-c4cnc5ccc(-c6ccccc6)cn45)n3)cn2)CC1 [Compound 63, Furan-2-yl(4-(5-((4-(6-phenylimidazo[1,2-a]pyridin-3-yl)pyrimidin-2-yl)amino)pyridin-2-yl)piperazin-1-yl)methanone] |  |  | 
74% | 91% | 97% | 24 nM | 12 nM | > 500 nM | 95% | O=C1NCCC12CCN(c1ccc(Nc3nccc(-c4cnc5ccc(Br)cn45)n3)cn1)CC2 [Compound 71, 8-(5-((4-(6-Bromoimidazo[1,2-a]pyridin-3-yl)pyrimidin-2-yl)amino)pyridin-2-yl)-2,8-diazaspiro[4.5]decan-1-one] |  |  | 
90% | 38% | 66% | 6 nM | 2 nM | 26 nM | 57% | COc1cc(F)cc(-c2ccc3ncc(-c4ccnc(Nc5ccc(N6CCN(C)CC6)nc5)n4)n3c2)c1 [Compound 64, 4-(6-(3-Fluoro-5-methoxyphenyl)imidazo[1,2-a]pyridin-3-yl)-N-(6-(4-methylpiperazin-1-yl)pyridin-3-yl)pyrimidin-2-amine] |  |  | 
97% | 99% | 100% | 57 nM | 23 nM | > 500 nM | 62% | CS(=O)(=O)N1CCN(c2ccc(Nc3nccc(-c4cnc5ccc(-c6cc7ccccc7o6)cn45)n3)cn2)CC1 [Compound 52, 4-(6-(Benzofuran-2-yl)imidazo[1,2-a]pyridin-3-yl)-N-(6-(4-(methylsulfonyl)piperazin-1-yl)pyridin-3-yl)pyrimidin-2-amine] |  |  | 
71% | 57% | 72% | 149 nM | 20 nM | 428 nM | 38% | CCS(=O)(=O)N1CCN(c2ccc(Nc3nccc(-c4cnc5ccc(-c6ccc(F)nc6)cn45)n3)cn2)CC1 [Compound 61, N-(6-(4-(Ethylsulfonyl)piperazin-1-yl)pyridin-3-yl)-4-(6-(6-fluoropyridin-3-yl)imidazo[1,2-a]pyridin-3-yl)pyrimidin-2-amine] |  |  | 
57% | 60% | 76% | 188 nM | 52 nM | 541 nM | 39% | O=C(c1ccco1)N1CCN(c2ccc(Nc3nccc(-c4cnc5ccc(Br)cn45)n3)cn2)CC1 [Compound 62, (4-(5-((4-(6-Bromoimidazo[1,2-a]pyridin-3-yl)pyrimidin-2-yl)amino)pyridin-2-yl)piperazin-1-yl)(furan-2-yl)methanone] |  |  | 
61% | 71% | 81% | 62 nM | 13 nM | 174 nM | 37% | CN(C)c1ccc(Nc2nccc(-c3cnc4ccc(-c5ccc(F)nc5)cn34)n2)cn1 [Compound 68, N^5-(4-(6-(6-Fluoropyridin-3-yl)imidazo[1,2-a]pyridin-3-yl)pyrimidin-2-yl)-N^2,N^2-dimethylpyridine-2,5-diamine] |  |  | 
 | 88% | 93% | 40 nM | 30 nM | 103 nM | 57% | Brc1ccc2ncc(-c3ccnc(Nc4ccc(NC5CCOCC5)nc4)n3)n2c1 [Compound 57, N^5-(4-(6-Bromoimidazo[1,2-a]pyridin-3-yl)pyrimidin-2-yl)-N^2-(tetrahydro-2H-pyran-4-yl)pyridine-2,5-diamine] | 56 nM |  | 
62% | 38% | 55% | 28 nM | 116 nM | 36 nM | 50% | CC(C)N1CCN(c2ccc(Nc3nccc(-c4cnc5ccc(-c6ccc(F)nc6)cn45)n3)cn2)CC1 [Compound 55, 4-(6-(6-Fluoropyridin-3-yl)imidazo[1,2-a]pyridin-3-yl)-N-(6-(4-isopropylpiperazin-1-yl)-pyridin-3-yl)pyrimidin-2-amine] |  |  | 
93% | 68% | 78% | > 500 nM | 362 nM | 1630 nM | 67% | CN(C)c1ccc(Nc2nccc(-c3cnc4ccc(C5=CCN(C(=O)OC(C)(C)C)CC5)cn34)n2)cn1 [Compound 67, Tert-butyl 4-(3-(2-((6-(dimethylamino)pyridin-3-yl)amino)pyrimidin-4-yl)imidazo[1,2-a]pyridin-6-yl)-3,6-dihydropyridine-1(2H)-carboxylate] |  |  | 
73% | 64% | 79% | 220 nM | 17 nM | 468 nM | 76% | CN(C)c1ccc(Nc2nccc(-c3cnc4ccc(-c5ccccc5)cn34)n2)cn1 [Compound 66, N^2,N^2-Dimethyl-N^5-(4-(6-phenylimidazo[1,2-a]pyridin-3-yl)pyrimidin-2-yl)pyridine-2,5-diamine] |  |  | 
86% | 66% |  |  |  | 83 nM | 87% | CN1CCN(c2ccc(Nc3nccc(-c4cnc5ccc(-c6ccccc6)cn45)n3)nc2)CC1 [Comparator compound A, N-(5-(4-methylpiperazin-1-yl)pyridin-2-yl)-4-(6-phenylimidazo[1,2-a]pyridin-3-yl)pyrimidin-2-amine, reference compound] |  |  | 

SMILES | remaining activity at 1 µM (CDK2/CyclinA2) | remaining activity at 1 µM (CDK7/CyclinH/Mat1) | remaining activity at 1 µM (CDK6/CyclinD3) | Ki (FLT3-ITD) | GI50 (MV-4-11) | Ki (CDK9/CyclinT1) | remaining activity at 1 µM (CDK1/CyclinB) | Ki (CDK2/CyclinA2) | Residual enzymatic activity (%) at 1 μM, FLT3-ITD (FLT3-ITD; compound at 1 μM) | Ki (CDK1/CyclinB; Km ATP, read-out: Enzymatic inhibition, Ki, CDK1 B)
CN(C)c1ccc(Nc2nccc(-c3cnc4ccc(C5=CCNCC5)cn34)n2)cn1 [Compound 69, N^2,N^2-Dimethyl-N^5-(4-(6-(1,2,3,6-tetrahydropyridin-4-yl)imidazo[1,2-a]pyridin-3-yl)pyrimidin-2-yl)pyridine-2,5-diamine] |  | 65% | 81% |  | 152 nM | 16 nM |  | 82 nM | 30% | 116 nM
